In ChEMBL document CHEMBL1201862, “PubChem BioAssay data set” (2004):
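Assay format: 96-well plates, 48-hour exposure. The concentration for 50% growth inhibition is given as GI50.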 The source made the active and inactive calls. Rule as the data show it: active = GI50 up to about 1.1 µM and inactive = higher.

Key:
Test in all cases: NCI tumour cell line growth inhibition, 48 h
CAKI-1 = tested on: CAKI-1
CCRF-CEM = tested on: CCRF-CEM
HOP-92 = tested on: HOP-92
HT-29 = tested on: HT-29
LOX IMVI = tested on: LOX IMVI
Malme-3M = tested on: Malme-3M
NCI-H23 = tested on: NCI-H23
OVCAR-4 = tested on: OVCAR-4
OVCAR-5 = tested on: OVCAR-5
OVCAR-8 = tested on: OVCAR-8
RPMI-8226 = tested on: RPMI-8226
SF-268 = tested on: SF-268
SK-MEL-28 = tested on: SK-MEL-28
SK-MEL-2 = tested on: SK-MEL-2
SK-OV-3 = tested on: SK-OV-3
SNB-19 = tested on: SNB-19
SW-620 = tested on: SW-620
TK-10 = tested on: TK-10
U-251 = tested on: U-251
UO-31 = tested on: UO-31

Row | Compound | GI50 (CAKI-1) | GI50 (CCRF-CEM) | GI50 (HOP-92) | GI50 (HT-29) | GI50 (LOX IMVI) | GI50 (Malme-3M) | GI50 (NCI-H23) | GI50 (OVCAR-4) | GI50 (OVCAR-5) | GI50 (OVCAR-8) | GI50 (RPMI-8226) | GI50 (SF-268) | GI50 (SK-MEL-28) | GI50 (SK-MEL-2) | GI50 (SK-OV-3) | GI50 (SNB-19) | GI50 (SW-620) | GI50 (TK-10) | GI50 (U-251) | GI50 (UO-31)
1 | COc1cccc(CC(C)N)c1 (stereo unspecified) | > 100 µM (inactive) | > 100 µM (inactive) | > 100 µM (inactive) | > 100 µM (inactive) | > 100 µM (inactive) | > 100 µM (inactive) | > 100 µM (inactive) | > 100 µM (inactive) | > 100 µM (inactive) | > 100 µM (inactive) | > 100 µM (inactive) | > 100 µM (inactive) | > 100 µM (inactive) | > 100 µM (inactive) | > 100 µM (inactive) | > 100 µM (inactive) | > 100 µM (inactive) | > 100 µM (inactive) | > 100 µM (inactive) | > 100 µM (inactive)
2 | O=[N+]([O-])C(/C=C(\Cl)[N+](=O)[O-])=C1Nc2ccccc2N1 | 22.1 µM (inactive) | 34.8 µM (inactive) | 18.3 µM (inactive) | 39.6 µM (inactive) | 34.8 µM (inactive) | 42.2 µM (inactive) | > 100 µM (inactive) | > 100 µM (inactive) |  | 56.6 µM (inactive) | 44.3 µM (inactive) | 57.1 µM (inactive) | 42.3 µM (inactive) |  | 42.4 µM (inactive) | 75.5 µM (inactive) | > 100 µM (inactive) | > 100 µM (inactive) | 43.3 µM (inactive) | 42.6 µM (inactive)
3 | c1cc2nnc1SCCCSc1ccc(nn1)SCCCS2 | > 45.4 µM (inactive) | > 21.2 µM (inactive) | 38.4 µM (inactive) | > 30.2 µM (inactive) | > 21.9 µM (inactive) | > 48.8 µM (inactive) | 34.8 µM (inactive) | 16.1 µM (inactive) | 31.3 µM (inactive) | > 39.6 µM (inactive) | > 25.3 µM (inactive) | 22.2 µM (inactive) | > 46.5 µM (inactive) | 24.7 µM (inactive) | 24.7 µM (inactive) | 33.1 µM (inactive) | > 53.3 µM (inactive) | 35.5 µM (inactive) | 17.3 µM (inactive) | > 100 µM (inactive)
4 | CN(C)CCNC(=O)c1ccc(NCCCN(C)CCCNc2ccc(C(=O)NCCN(C)C)c3nc4ccccc4c(O)c23)c2c(O)c3ccccc3nc12 | 0.501 µM (active) | < 0.012 µM (active) | 0.234 µM (active) | < 0.01 µM (active) | < 0.01 µM (active) | < 0.0153 µM (active) | < 0.0122 µM (active) | < 0.0164 µM (active) | 0.0422 µM (active) | < 0.01 µM (active) | < 0.01 µM (active) | < 0.01 µM (active) | 0.161 µM (active) | < 0.0211 µM (active) | < 0.0146 µM (active) | < 0.01 µM (active) | 0.0171 µM (active) | 0.16 µM (active) | < 0.01 µM (active) | 0.326 µM (active)
5 | O=C1/C(=C/c2ccccc2)NC(=S)N1CN1CCOCC1 |  | > 100 µM (inactive) | > 100 µM (inactive) | > 100 µM (inactive) | > 100 µM (inactive) | > 100 µM (inactive) | > 100 µM (inactive) | 72.8 µM (inactive) | > 100 µM (inactive) | > 100 µM (inactive) | > 100 µM (inactive) | > 100 µM (inactive) | > 100 µM (inactive) | > 100 µM (inactive) | > 100 µM (inactive) | > 100 µM (inactive) | > 100 µM (inactive) | > 100 µM (inactive) | > 100 µM (inactive) | > 100 µM (inactive)
6 | CN(O)C(=O)CCCC(=O)NCC(C)(C)CNC(=O)CCCC(=O)N(C)O | > 100 µM (inactive) | > 100 µM (inactive) | > 100 µM (inactive) | > 100 µM (inactive) | > 100 µM (inactive) | > 100 µM (inactive) | > 100 µM (inactive) | > 100 µM (inactive) | > 100 µM (inactive) | > 100 µM (inactive) | > 100 µM (inactive) | > 100 µM (inactive) |  | > 100 µM (inactive) | > 100 µM (inactive) | > 100 µM (inactive) | > 100 µM (inactive) | > 100 µM (inactive) | > 100 µM (inactive) | > 100 µM (inactive)
7 | NC(=O)c1csc(C2O[C@@H](COP(=O)(O)OP(=O)(O)OC[C@H]3OC(n4cnc5c(N)ncnc54)[C@H](O)[C@@H]3O)[C@H](O)[C@@H]2O)n1 (stereo partly specified) | 97.9 µM (inactive) | > 100 µM (inactive) | > 100 µM (inactive) | 87.5 µM (inactive) | 54.5 µM (inactive) | > 100 µM (inactive) | > 100 µM (inactive) | 73.3 µM (inactive) | > 100 µM (inactive) | 73.8 µM (inactive) | 65.2 µM (inactive) | 64 µM (inactive) | 30 µM (inactive) | > 100 µM (inactive) | > 100 µM (inactive) | > 100 µM (inactive) | > 100 µM (inactive) | > 100 µM (inactive) | 45.8 µM (inactive) | > 100 µM (inactive)
8 | COc1ccc(C2CC(c3sc(Nc4ccc(C)cc4)nc3C)=NN2)cc1 (stereo unspecified) | 18 µM (inactive) | 11.1 µM (inactive) | 14.2 µM (inactive) | 11.8 µM (inactive) | 18.2 µM (inactive) | > 10 µM (inactive) | 15.5 µM (inactive) | 13.3 µM (inactive) | 22.4 µM (inactive) | 15.5 µM (inactive) | 12.4 µM (inactive) | 15.8 µM (inactive) | 16.8 µM (inactive) | 15.8 µM (inactive) | 24.4 µM (inactive) | 15.7 µM (inactive) | 18.8 µM (inactive) |  | 14.8 µM (inactive) | 14.2 µM (inactive)
9 | CC(=O)O[C@@H]1C2=C(C3=C([O-])C4=CC=CC(=O)C4C(=O)C3=C2[N+]#N)[C@H](OC(C)=O)[C@@H](OC(C)=O)[C@]1(C)O (stereo partly specified) | 0.407 µM (active) | 0.0323 µM (active) | 0.438 µM (active) |  | 0.124 µM (active) | 0.332 µM (active) | 0.746 µM (active) | 0.731 µM (active) | 0.353 µM (active) | 0.184 µM (active) | 0.115 µM (active) | 0.302 µM (active) | 0.743 µM (active) | 0.832 µM (active) | 0.731 µM (active) | 0.951 µM (active) | 0.284 µM (active) | 0.484 µM (active) |  | 0.561 µM (active)
10 | CSCCC(N)P(C)(=O)O (stereo unspecified) | > 100 µM (inactive) | > 100 µM (inactive) | > 100 µM (inactive) | > 100 µM (inactive) | > 100 µM (inactive) | > 100 µM (inactive) | > 100 µM (inactive) | > 100 µM (inactive) | > 100 µM (inactive) | > 100 µM (inactive) | > 100 µM (inactive) | > 100 µM (inactive) | > 100 µM (inactive) | > 100 µM (inactive) | > 100 µM (inactive) | > 100 µM (inactive) | > 100 µM (inactive) | > 100 µM (inactive) | > 100 µM (inactive) | > 100 µM (inactive)
11 | CCOC(=O)c1cc2c([N+](=O)[O-])c(NC(C)=O)ccc2s1 | 41.6 µM (inactive) | 53 µM (inactive) | 44.8 µM (inactive) | 89.7 µM (inactive) | 60.4 µM (inactive) | 28.2 µM (inactive) | 71.9 µM (inactive) | 68.4 µM (inactive) | > 100 µM (inactive) | > 100 µM (inactive) | 24.4 µM (inactive) | 50.7 µM (inactive) | > 100 µM (inactive) | > 100 µM (inactive) | > 100 µM (inactive) | > 100 µM (inactive) | > 100 µM (inactive) | > 100 µM (inactive) | 44.6 µM (inactive) | 47.3 µM (inactive)
12 | O=P(CCOc1ccccc1OCCP(=O)(c1ccccc1)c1ccc2c(c1)OCCOCCOCCOCCO2)(c1ccccc1)c1ccc2c(c1)OCCOCCOCCOCCO2 (stereo unspecified) |  | > 100 µM (inactive) | > 100 µM (inactive) | > 100 µM (inactive) | > 100 µM (inactive) | > 100 µM (inactive) | > 100 µM (inactive) | > 100 µM (inactive) | > 100 µM (inactive) | > 100 µM (inactive) | > 100 µM (inactive) | > 100 µM (inactive) | > 100 µM (inactive) | > 100 µM (inactive) | > 100 µM (inactive) | > 100 µM (inactive) | > 100 µM (inactive) | > 100 µM (inactive) | > 100 µM (inactive) | > 100 µM (inactive)
13 | CC(Oc1ccccc1Cl)C(=O)NN1C(=O)CSC1c1ccc(Cl)cc1 (stereo unspecified) | 23.6 µM (inactive) | 0.17 µM (active) | 20 µM (inactive) | 19.8 µM (inactive) | 19.6 µM (inactive) | 27 µM (inactive) | 19.3 µM (inactive) | 13.7 µM (inactive) | 22.8 µM (inactive) | 23.4 µM (inactive) | 17.9 µM (inactive) | 20.6 µM (inactive) | 23 µM (inactive) | 21.9 µM (inactive) | 18.8 µM (inactive) | 21.7 µM (inactive) | 23.4 µM (inactive) | 25.8 µM (inactive) | 17.8 µM (inactive) | 35.1 µM (inactive)
14 | NC(=O)c1ncn2c1NC(=O)CC2 | > 100 µM (inactive) | > 100 µM (inactive) | > 100 µM (inactive) | > 100 µM (inactive) | > 100 µM (inactive) | > 100 µM (inactive) | > 100 µM (inactive) | > 100 µM (inactive) | > 100 µM (inactive) | > 100 µM (inactive) | > 100 µM (inactive) | > 100 µM (inactive) | > 100 µM (inactive) | > 100 µM (inactive) | > 100 µM (inactive) | > 100 µM (inactive) | > 100 µM (inactive) |  | > 100 µM (inactive) | > 100 µM (inactive)
